Assay results taken from article PMC6273065, “Synthesis, Molecular Modelling and Biological Evaluation of Novel Heterodimeric, Multiple Ligands Targeting Cholinesterases and Amyloid Beta” (Molecules, 2016).

Tests used:
EeAChE = biological target: T1, EeAChE (Electrophorus electricus, UniProt O42275); assay: biochemical; format: biochemical; settings: for EeAChE inhibitory activity in words: Ellman's assay
T1 construct: purchased Sigma–Aldrich
Description: (§1) Ellman’s method was used to determine the activity of the synthesized compounds against AChE from electric eel (Electrophorus electricus, EeAChE) and BuChE from equine serum (EqBuChE).
(§2) All assays were performed in 0.1 M phosphate buffer pH 8.0. The tested compounds or water in a blank sample (25 µL) were incubated with the enzyme (20 µL) for 5 min at 25 °C in buffer (765 µL) prior to starting the reaction. Then, DTNB (20 µL) and ATC (20 µL) were added. […] Each condition was measured in triplicate. The percentages of enzyme inhibition were calculated from the equation 100%—Ai/A0 × 100%, where Ai is the absorbance of a sample with an inhibitor and A0 is the absorbance of a blank sample (100% activity of the enzyme). The IC50 values were calculated using GraphPad Prism 5. Data is expressed as mean ± SEM.

EqBuChE = biological target: T2, EqBuChE (Equus caballus, UniProt P81908); assay: biochemical
T2 construct: BuChE from equine serum (EqBuChE, Sigma–Aldrich); purchased Sigma–Aldrich; host or cells: equine serum
Description: as §1, §2

Aβ1–42 = biological target: T3, Aβ1–42 (Homo sapiens, UniProt P05067); assay: Thioflavin-T fluorometric assay of self-induced Aβ1–42 aggregation; format: biochemical; settings: 10 µM compound, 1.5 µM Aβ1–42; mean ± SD; <10 = defined as not active; read-out: Aβ1–42 Aggreg. % of inhibition
T3 construct: Recombinant human HFIP-pretreated Aβ1–42 peptide; purchased Merck Millipore Lot number 2387442
Source text: Mechanisms of Aβ aggregation remain unclear. Besides the self-induced assembly of Aβ, several other factors affect its aggregation, including metal ions, AChE [45], and oxidative stress. Therefore, we evaluated our compounds using the most versatile and commonly used Aβ1–42 aggregation Thioflavin T assay. Seven structurally diverse compounds were selected (one from each subseries) to test their ability to inhibit self-induced Aβ1–42 aggregation.
Thioflavin-T (ThT) fluorometric assay was performed to investigate the effect of the test compounds on the self-aggregation of Aβ1–42. […] Each sample was prepared in quadruplicate, and the DMSO was always at 3%. To quantify amyloid fibril formation, the ThT fluorescence was measured through the bottom of the plate every 180 s at an excitation wavelength of 440 nm and emission wavelength of 490 nm, with the medium continuously shaking between measurements using a 96-well microplate reader (Synergy™ H4, BioTek Instruments, Inc., Winooski, VT, USA). […] The fluorescence intensities at the plateau in the absence and presence of the test compounds were averaged, and the average fluorescence of the corresponding wells at t = 0 h was subtracted.

[1] = PAMPA-BBB; for Log Pe: 2 h at 37 °C, means of two replicates; for Prediction of BBB penetration: class from log Pe
Description: For anti-Alzheimer drug candidates, the ability to cross the blood–brain barrier and to enter the central nervous system (CNS) is crucial to achieve their pharmacological target and activity.
The BBB-PAMPA Explorer Test System was purchased from pION Inc. The in vitro permeability through BBB-1 lipid membrane was determined for 7 commercial drugs and the tested compounds. The compounds were dissolved in DMSO (10 mM stock solution) and diluted with Prisma HT buffer (5 µL/1 mL). Then, the […] 96-well microplate was filled with solution of the tested compounds in buffer (200 µL/well). The filter membrane in acceptor 96-well microplate was impregnated with BBB-1 lipid solution (5 µL/well) and the acceptor plate was filled with Brain Sink Buffer (200 µL/well). The acceptor plate was carefully placed on the donor plate to form a sandwich that was left undisturbed for 2 h at 37 °C. After incubation, the donor plate was carefully removed. The concentration of compounds in the acceptor, the donor, and the reference wells were measured using EnSpire Multimode Microplate Reader (PerkinElmer).

T2 sequence (P81908 whole entry): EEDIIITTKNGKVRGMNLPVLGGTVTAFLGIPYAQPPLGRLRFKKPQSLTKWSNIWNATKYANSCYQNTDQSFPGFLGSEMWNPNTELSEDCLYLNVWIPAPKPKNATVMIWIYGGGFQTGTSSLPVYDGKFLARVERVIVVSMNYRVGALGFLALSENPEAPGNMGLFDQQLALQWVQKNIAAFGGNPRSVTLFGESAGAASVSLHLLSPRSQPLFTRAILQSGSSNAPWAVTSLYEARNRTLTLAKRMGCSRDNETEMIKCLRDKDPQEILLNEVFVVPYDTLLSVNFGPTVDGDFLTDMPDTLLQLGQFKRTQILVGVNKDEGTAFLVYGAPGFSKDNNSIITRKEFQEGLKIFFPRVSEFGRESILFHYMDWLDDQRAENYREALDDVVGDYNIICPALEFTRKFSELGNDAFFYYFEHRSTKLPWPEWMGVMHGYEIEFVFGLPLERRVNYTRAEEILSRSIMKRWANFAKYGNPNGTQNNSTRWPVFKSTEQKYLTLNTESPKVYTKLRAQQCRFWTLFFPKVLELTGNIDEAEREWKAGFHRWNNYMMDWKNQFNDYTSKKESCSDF
T3 sequence (P05067 672-713): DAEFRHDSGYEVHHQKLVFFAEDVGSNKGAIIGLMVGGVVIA
T1 sequence (O42275 24-633): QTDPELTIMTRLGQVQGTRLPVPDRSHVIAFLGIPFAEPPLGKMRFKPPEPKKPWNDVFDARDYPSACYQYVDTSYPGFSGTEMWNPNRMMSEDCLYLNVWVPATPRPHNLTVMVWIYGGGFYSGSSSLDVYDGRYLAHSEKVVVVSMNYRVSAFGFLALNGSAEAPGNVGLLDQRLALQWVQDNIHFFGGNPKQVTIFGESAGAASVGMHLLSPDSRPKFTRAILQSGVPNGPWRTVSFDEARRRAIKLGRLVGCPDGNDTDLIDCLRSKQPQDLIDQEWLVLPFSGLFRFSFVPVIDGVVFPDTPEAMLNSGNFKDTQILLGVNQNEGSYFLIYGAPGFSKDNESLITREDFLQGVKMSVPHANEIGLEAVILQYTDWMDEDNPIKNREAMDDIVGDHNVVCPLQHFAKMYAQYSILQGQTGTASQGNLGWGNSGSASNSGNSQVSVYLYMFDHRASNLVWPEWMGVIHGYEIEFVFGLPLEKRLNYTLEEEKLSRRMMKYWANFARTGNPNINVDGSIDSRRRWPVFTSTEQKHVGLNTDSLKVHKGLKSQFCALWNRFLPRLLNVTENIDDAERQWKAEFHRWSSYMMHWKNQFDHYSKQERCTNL

| SMILES | IC50 (EeAChE) [µM] | IC50 (EqBuChE) [µM] | inhibition at 10 µM (Aβ1–42) [%] | Log Pe [1] | Prediction of BBB penetration [1] | EeAChE inhibitory activity in words (EeAChE) |
| --- | --- | --- | --- | --- | --- | --- |
| O=C1c2ccccc2C(=O)N1CCCCCN1CCCC1 [Compound 1, 2-(5-(Pyrrolidin-1-yl)pentyl)isoindoline-1,3-dione] | 0.781 ± 0.009 | > 50 | – | – | – | – |
| O=C1c2ccccc2C(=O)N1CCCCCCN1CCCC1 [Compound 2, 2-(6-(Pyrrolidin-1-yl)hexyl)isoindoline-1,3-dione] | 0.643 ± 0.006 | > 50 | – | – | – | – |
| O=C1c2ccccc2C(=O)N1CCCCCN1CCOCC1 [Compound 5, 2-(5-Morpholinopentyl)isoindoline-1,3-dione] | 18.1 ± 0.402 | > 50 | – | – | – | – |
| O=C1c2ccccc2C(=O)N1CCCCCCN1CCOCC1 [Compound 6, 2-(6-Morpholinohexyl)isoindoline-1,3-dione] | 17.2 ± 0.474 | > 50 | – | – | – | – |
| O=C1c2ccccc2C(=O)N1CCCCCCCN1CCOCC1 [Compound 7, 2-(7-Morpholinoheptyl)isoindoline-1,3-dione] | 4.11 ± 0.066 | > 50 | 17.1 ± 6.13 | –4.2 | CNS+ (CNS+, log Pe > −4.5, high permeability (i.e., can enter the CNS)) | – |
| O=C1c2ccccc2C(=O)N1CCCCCCCCN1CCOCC1 [Compound 8, 2-(8-Morpholinooctyl)isoindoline-1,3-dione] | 4.5 ± 0.064 | > 50 | – | – | – | – |
| O=C1c2ccccc2C(=O)N1CCCCN1CCc2ccccc2C1 [Compound 9, 2-(4-(3,4-dihydroisoquinolin-2(1H)-yl)butyl)isoindoline-1,3-dione] | 5.6 ± 0.087 | 12.82 ± 0.107 | – | – | – | – |
| O=C1c2ccccc2C(=O)N1CCCCCN1CCc2ccccc2C1 [Compound 10, 2-(5-(3,4-dihydroisoquinolin-2(1H)-yl)pentyl)isoindoline-1,3-dione] | 1.266 ± 0.011 | 5.31 ± 0.16 | – | – | – | – |
| O=C1c2ccccc2C(=O)N1CCCCCCCN1CCc2ccccc2C1 [Compound 12, 2-(7-(3,4-Dihydroisoquinolin-2(1H)-yl)heptyl)isoindoline-1,3-dione] | 0.688 ± 0.017 | 1.17 ± 0.027 | – | – | – | – |
| O=C1c2ccccc2C(=O)N1CCCCCCCCN1CCc2ccccc2C1 [Compound 13, 2-(8-(3,4-Dihydroisoquinolin-2(1H)-yl)octyl)isoindoline-1,3-dione] | 0.76 ± 0.017 | 0.618 ± 0.009 | 35.8 ± 5.39 | –4.2 | CNS+ (CNS+, log Pe > −4.5, high permeability (i.e., can enter the CNS)) | – |
| O=C1c2ccccc2C(=O)N1CCCCCCCCCCN1CCc2ccccc2C1 [Compound 14, 2-(10-(3,4-Dihydroisoquinolin-2(1H)-yl)decyl)isoindoline-1,3-dione] | > 50 | 1.73 ± 0.038 | – | – | – | not active |
| O=C1c2ccccc2C(=O)N1CCCCCCCCCCCCN1CCc2ccccc2C1 [Compound 15, 2-(12-(3,4-Dihydroisoquinolin-2(1H)-yl)dodecyl)isoindoline-1,3-dione] | > 50 | 3.66 ± 0.085 | – | – | – | not active |
| CCN(CC)CCCCCN1CCc2ccccc2C1 [Compound 20, 5-(3,4-dihydroisoquinolin-2(1H)-yl)-N,N-diethylpentan-1-amine] | > 50 | > 50 | – | – | – | – |
| CCN(CC)CCCCCCN1CCc2ccccc2C1 [Compound 21, 6-(3,4-Dihydroisoquinolin-2(1H)-yl)-N,N-diethylhexan-1-amine] | > 50 | > 50 | – | – | – | – |
| CCN(CC)CCCCCCCN1CCc2ccccc2C1 [Compound 22, 7-(3,4-Dihydroisoquinolin-2(1H)-yl)-N,N-diethylheptan-1-amine] | 17.3 ± 0.401 | 37.1 ± 0.878 | – | – | – | – |
| CCN(CC)CCCCCCCCN1CCc2ccccc2C1 [Compound 23, 8-(3,4-Dihydroisoquinolin-2(1H)-yl)-N,N-diethyloctan-1-amine] | 4.72 ± 0.149 | 14 ± 0.343 | < 10 | – | – | – |
| CCN(CC)CCCn1ccc2ccccc21 [Compound 30, N,N-diethyl-3-(1H-indol-1-yl)propan-1-amine] | > 50 | > 50 | – | – | – | – |
| CCN(CC)CCCCn1ccc2ccccc21 [Compound 31, N,N-diethyl-4-(1H-indol-1-yl)butan-1-amine] | > 50 | 26 ± 0.813 | – | – | – | – |
| CCN(CC)CCCCCn1ccc2ccccc21 [Compound 32, N,N-Diethyl-5-(1H-indol-1-yl)pentan-1-amine] | > 50 | 22.6 ± 0.602 | – | – | – | – |
| CCN(CC)CCCCCCn1ccc2ccccc21 [Compound 33, N,N-Diethyl-6-(1H-indol-1-yl)hexan-1-amine] | > 50 | 28.7 ± 0.723 | – | – | – | – |
| CCN(CC)CCCCCCCn1ccc2ccccc21 [Compound 34, N,N-Diethyl-7-(1H-indol-1-yl)heptan-1-amine] | 22.2 ± 0.424 | 1.47 ± 0.593 | – | – | – | – |
| CCN(CC)CCCCCCCCn1ccc2ccccc21 [Compound 35, N,N-Diethyl-8-(1H-indol-1-yl)octan-1-amine] | 9.56 ± 0.289 | 3.47 ± 0.1 | 16.6 ± 2.74 | – | – | – |
| O=C1c2ccccc2S(=O)(=O)N1CCCCCNCc1ccccc1F [Compound 39, 2-(5-(2-fluorobenzylamino)pentyl)benzo[d]isothiazol-3(2H)-one 1,1-dioxide] | 0.15 ± 0.003 | > 50 | 12.3 ± 2.63 | –4.0 | CNS+ (CNS+, log Pe > −4.5, high permeability (i.e., can enter the CNS)) | – |
| O=C1c2ccccc2S(=O)(=O)N1CCCCCCNCc1ccccc1F [Compound 40, 2-(6-(2-fluorobenzylamino)hexyl)benzo[d]isothiazol-3(2H)-one 1,1-dioxide] | 1.14 ± 0.015 | > 50 | – | – | – | – |
| O=C1c2ccccc2S(=O)(=O)N1CCCCCCCNCc1ccccc1F [Compound 41, 2-(7-(2-fluorobenzylamino)heptyl)benzo[d]isothiazol-3(2H)-one 1,1-dioxide] | 0.735 ± 0.009 | 4.97 ± 0.127 | – | – | – | – |
| O=C1c2ccccc2S(=O)(=O)N1CCCCCCNCc1cccc(Cl)c1 [Compound 43, 2-(6-(3-chlorobenzylamino)hexyl)benzo[d]isothiazol-3(2H)-one 1,1-dioxide] | 0.596 ± 0.006 | 6.54 ± 0.163 | – | – | – | – |
| O=C1c2ccccc2S(=O)(=O)N1CCCCCCCNCc1cccc(Cl)c1 [Compound 44, 2-(7-(3-chlorobenzylamino)heptyl)benzo[d]isothiazol-3(2H)-one 1,1-dioxide] | 0.923 ± 0.012 | 2.46 ± 0.032 | – | – | – | – |
| CC(=O)[C@H]1CC[C@H]2[C@@H]3CCC4=CC(=O)CC[C@]4(C)[C@H]3CC[C@]12C [Progesterone, reference compound] | – | – | – | – | CNS+ (CNS+, log Pe > −4.5, high permeability (i.e., can enter the CNS)) | – |
| CC(C)NCC(O)COc1cccc2ccccc12 (stereo not shown) [Propranolol, reference compound] | – | – | – | – | CNS+ (CNS+, log Pe > −4.5, high permeability (i.e., can enter the CNS)) | – |
| Cn1c(=O)c2[nH]cnc2n(C)c1=O [Theophylline, reference compound] | – | – | – | –6.3 | – | – |
